Test results published in patent US12630520B2, “Left-handed bicyclic morpholine and salt thereof, preparation method therefor, pharmaceutical composition, and use” (Institute of Materia Medica, Chinese Academy of Medical …, priority 2019, dated 2026).
Where “and” joins values, the source holds several entries; their conditions need not be identical. Equal values may be shown once.

Tests used:
[1] = tested on: HepG2 cells; assay: Toxicity to HepG2 cells (cell survival rate, 48 h); type: cell-based, human; details: HepG2, 10 μM, not significantly toxic
Description: The concentration was utilized to investigate the protective effects on APAP injured hepatocytes.
The concentration was utilized to investigate the protective effects on CCl4 injured hepatocytes.

[2] = tested on: HepG2 cells; assay: 4-Acetamidophenol (APAP)-induced in vitro hepatocyte injury, MTT and LDH; type: cell-based, human; details: 8 mM APAP; for LDH level in the cell culture supernatant: HepG2, 10 uM, 24 h (the FIGURE); for Survival rates (%) / OD Mean ± SD / Cell survival rate increase (%): HepG2, 10 μM; for Survival rates (%) / OD Mean ± SD: 24 h, MTT; for OD Mean ± SD: 570 nm; for Cell survival rate increase (%): versus model group
Experimental: Human liver cancer HepG2 cell well retained the characteristics of normal human hepatocytes, and they were grown in a DMEM medium containing 10% of fetal calf cerium (containing 100 U/mL of penicillin and 100 μg/mL of streptomycin) at the culturing conditions: 37° C., 5% of CO2 and a saturated humidity. A solution containing 0.25% of trypsin and 0.02% of EDTA was used for digestions and passages.
A MTT method was adopted. The HepG2 cells were inoculated in a 96-well cell culture plate, and after 24 hour cultures, the (+)IMM-H014, the (−)IMM-H014 and the (±)IMM-H014 were added in a non-toxic concentration whilst the 4-acetamidophenol (APAP, a final concentration of 8 mM) was added thereto. A Bicyclol positive control group, a solvent control group and a model group were set for the experiment. The culture was continued for 24 h. 100 μL of the culture solution was taken and centrifuged, and a full-automatic biochemical analyzer in a LDH detection kit was utilized to detect the LDH level therein. The remaining culture solution was discarded, and to each well, 100 μL of a MTT (0.5 mg/mL) solution was added to continue the culture for 4 hours. The MTT solution was discarded, and to each well, 150 μL of DMSO was added. The mixture was oscillated by a mixing oscillator, and the absorbance value was measured at a wavelength of 570 nm in a microplate reader. Cell survival rate (%)=(OD mean of administration group/OD mean of solvent control group)×100%.
The data were presented as a number mean±standard deviation (x±SD).

[3] = tested on: ConA-induced acute immune liver injuries; assay: ConA-induced mouse acute immune liver injury model; type: in vivo; details: mouse serum; for ALT (U/L) / AST (U/L) / LDH (U/L): 200 mg/kg intragastric once a day x3, 20 mg/kg ConA tail vein, n = 10; for ALT reduction percent (%) / AST reduction percent (%) / LDH reduction percent (%): 200 mg/kg, versus ConA model group
Experimental: 1. Method for Establishment of a ConA-Induced Mouse Acute Immune Liver Injury Model and Method of Administration SPF-grade male ICR mice (20-22 g), after acclimatization, were randomly divided into 5 groups: a blank control group, a ConA-induced model group, a 200 mg/kg (+)IMM-H014 group, a 200 mg/kg (−)IMM-H014 group, and a 200 mg/kg (±)IMM-H014 group, 10 mice in each group. Each administration group was intragastrically administrated once a day, and it was totally administrated three times. The blank control group and the model group were intragastrically administrated with the same dose of physiological saline. At 2 hours after the last administration, the mice in each group except the blank control group, were injected once with 20 mg/kg ConA in the tail vein, and each administration dose was 10 ml/kg. The mice were in fasting but not in water deprivation for 16 h and then the animals waited for further treatment. 2. Determination of Biochemical Indexes The mice were decapitated and blood was taken, and the blood samples were kept still at room temperature for 2 h and centrifuged at 4000 rpm for 10 min, to separate the serum. The ALT, AST and LDH contents in the serum were detected with a full-automatic biochemical analyzer. The data each were presented as a number mean±standard deviation (x±SD).

Row | SMILES | cell survival rate [1] | LDH level in the cell culture supernatant [2] | Survival rates (%) [2] | OD Mean ± SD [2] | Cell survival rate increase (%) [2] | ALT (U/L) [3] | AST (U/L) [3] | LDH (U/L) [3] | ALT reduction percent (%) [3] | AST reduction percent (%) [3] | LDH reduction percent (%) [3]
1 | COC(=O)c1cc(OC)c2c(c1-c1c(CN3CCOCC3)cc(OC)c3c1OCO3)OCO2 (racemic) [(±)IMM-H014] | 90% | could reduce the LDH levels | 50.63% | 0.453 ± 0.032 | 32.1% | 107.0 ± 108.7 U/L | 725.0 ± 417.3 U/L | 3466.7 ± 1772.4 U/L | 88.6% | 22.2% | 6.4%
2 | COC(=O)c1cc(OC)c2c(c1-c1c(CN3CCOCC3)cc(OC)c3c1OCO3)OCO2 [(+)IMM-H014] | 90% | could reduce the LDH levels | 54.58% | 0.489 ± 0.098 | 41.4% and 42.4% | 44.4 ± 29.1 U/L | 514.3 ± 310.7 U/L | 2680.0 ± 1190.8 U/L | 95.3% | 44.8% | 27.6%
3 | COC(=O)c1cc(OC)c2c(c1-c1c(CN3CCOCC3)cc(OC)c3c1OCO3)OCO2 [(−)IMM-H014] | 90% | could reduce the LDH levels | 67.01% | 0.600 ± 0.054^###& | 74.8% | 25.6 ± 17.4^###& U/L | 252.9 ± 233.5^##& U/L | 1690.0 ± 929.3^##& U/L | 97.3% | 72.9% | 54.4%
